Data taken from US12497396B2, “Nitrogen-containing heterocyclic derivatives, method therefor and application therefor as inhibitors of KRAS G12C for the treatment of cancers” (SHANGHAI HANSOH BIOMEDICAL CO., LTD., priority 2019, dated 2025).
pIC50: −log10 of the molar value.

What was measured:
[1] = tested on: NCI-H358 cells (KRAS G12C mutant cell line); experiment: Inhibition of NCI-H358 cell proliferation (CellTiter-Glo, 72 h); type: cell-based, human; conditions: Homo sapiens
In short: (§1)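 Cells were seeded overnight at 37 °C, 5% CO2, then exposed to serially diluted compound (DMSO/medium) alongside a solvent control for 72 h. Viability was read by CellTiter-Glo luminescence, and IC50 was derived by nonlinear regression of inhibition rate against concentration.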

[2] = tested on: Mia PaCa-2 cells (KRAS G12C mutant cell line); experiment: Inhibition of Mia PaCa-2 cell proliferation (CellTiter-Glo, 72 h); type: cell-based, human; conditions: Homo sapiens
In short: as §1

human KRAS G12C protein = target: T1, human KRAS G12C protein (Homo sapiens, UniProt P01116, G12C); experiment: Thermal shift: melting temperature of KRAS G12C protein; type: binding
T1 construct: purchased Beijing SinoBiological Co., Ltd. 12259-H07E2
In short: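 5.37 μM (final) human KRAS G12C in […] HEPES pH 7.5, 1 mM DTT, 150 mM NaCl, 5×SYPRO Orange, incubated 1 h at room temperature in the dark. Melt curve run from 25 to 95° C at 0.03° C/s. ΔTm = treated Tm minus DMSO control Tm.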

[3] = tested on: phosphorylated ERK in KRAS G12C mutant cells Mia PaCa-2; experiment: Inhibition of phosphorylated ERK level in Mia PaCa-2 cells (LANCE Ultra); type: cell-based; conditions: Homo sapiens, 2 hours, read-out: Mia PaCa-2 pERK IC50
Description: As a preferred embodiment of the present disclosure, the method for detecting the inhibitory activity of phosphorylated ERK level is as follows: through cell culture, adding different concentrations of compound solutions to the cultured cells, continuing the culture for a period of time, lysing the cells, followed by centrifugation and […]; • further, the method of cell culture is: adjusting the cells to a suitable cell concentration with a complete medium, preferably the cell concentration is 1×10^6/mL, and spreading the cell suspension on a well plate for culture.
When Mia PaCa-2 cells were cultured to the appropriate fusion level, Mia PaCa-2 cells were collected, and the cell density was adjusted to 1×10^6/mL using complete culture medium, the cell suspension was spread on a 96-well plate, 50 μL per well, and placed adherent to the wall in a 37° C., 5% CO2 incubator overnight, compound solutions with different concentrations were prepared using DMSO and complete culture medium, a solvent control was set, the compound solution was added to a 96-well plate, 25 μL per well, and placed in a 37° C., 5% CO2 incubator for 2 hours of continuous culture, the supernatant was discarded from the cell culture plate, 50 μL of lysis solution was added to each well, and lysing was performed for 30 minutes by shaking at room temperature, then the mixture was centrifuged at 1000 rpm for 1 minute, 15 μL of supernatant was transferred to 384 well plate, 5 μL of detection mixture (Eu-labeled anti-ERK1/2 (T202-Y204) antibody with final concentration of 0.5 nM and ULight labeled anti-ERK1/2 antibody with final concentration of 5 nM) was added to each well, centrifuged at 1000 rpm for 1 minute and mixed uniformly, the reaction was carried out overnight at room temperature, the plate was read with BioTek Synergy H1, and the signal values was detected at 620 nm and 665 nm emission wavelengths by time-resolved fluorescence program.
The ratio of the signal values at 665 nm and 620 nm emission wavelength were calculated, and the ratio was used to calculate the inhibition rate, the concentration and the inhibition rate were fitted to a nonlinear regression curve using Graphpad Prism software, then the IC50 value was obtained.

C=CC(=O)N1CCN(c2nc(=O)n(-c3c(SC)ccnc3C(C)C)c3nc(-c4c(N)cccc4F)c(F)cc23)[C@@H](C)C1 [Embodiment 134, 4-((S)-4-acryloyl-2-methylpiperazin-1-yl)-7-(2-amino-6-fluorophenyl)-6-fluoro-1-(2-isopropyl-4-(methylthio)pyridin-3-yl) pyrido [2,3-d] pyrimidin-2 (1H)-one]
pIC50 [1]: 7.64 | pIC50 [2]: 7.52 | Tm (° C.) (human KRAS G12C protein; KRAS G12C protein 5.37 μM with compound 10 μM, 1 hour incubation): 64.4 °C | ΔTm at 10 µM (human KRAS G12C protein; compound 10 μM, Tm minus Tm of DMSO solvent control): 15.8 °C | pIC50 [3]: 7.52
